From paper PMC10175918 (Communications Biology, 2023)
Like-named read-outs stand apart in the source and are kept apart here.

Experiments:
Experiment in all cases: TGFα-shedding assay-based GPCR screening with chimeric Gα subunit proteins
Type in all cases: cell-based
348 GPCRs [1] = target: T1, 348 GPCRs (Homo sapiens, UniProt O15218); conditions: 10µM, Favipiravir 100μM
T1 construct: expressed in transfected cells; host or cells: HEK293A

348 GPCRs [2] = target: T2, 348 GPCRs (Homo sapiens, UniProt P22888); conditions: 10µM, Favipiravir 100μM
T2 construct: expressed in transfected cells; host or cells: HEK293A

348 GPCRs [3] = target: T3, 348 GPCRs (Homo sapiens, UniProt P32247); conditions: 10µM, Favipiravir 100μM
T3 construct: expressed in transfected cells; host or cells: HEK293A
T3 sequence (P32247 1-399): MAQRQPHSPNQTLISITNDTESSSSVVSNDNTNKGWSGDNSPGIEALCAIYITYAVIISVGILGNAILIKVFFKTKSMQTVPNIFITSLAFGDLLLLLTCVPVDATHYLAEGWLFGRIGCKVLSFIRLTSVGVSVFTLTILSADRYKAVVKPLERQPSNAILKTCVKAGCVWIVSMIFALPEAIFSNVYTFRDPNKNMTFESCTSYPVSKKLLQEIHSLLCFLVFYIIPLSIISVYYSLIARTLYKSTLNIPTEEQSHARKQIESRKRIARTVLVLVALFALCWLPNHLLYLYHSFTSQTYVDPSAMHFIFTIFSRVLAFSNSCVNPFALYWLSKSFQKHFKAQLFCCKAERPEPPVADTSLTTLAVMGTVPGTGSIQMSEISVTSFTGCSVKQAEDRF

348 GPCRs [4] = target: 348 GPCRs (Homo sapiens, UniProt P47872); conditions: SCTR (secretin receptor); 10µM, Favipiravir 100μM
348 GPCRs [5] = target: T4, 348 GPCRs (Homo sapiens, UniProt Q86Y34); conditions: 10µM, Favipiravir 100μM
T4 construct: expressed in transfected cells; host or cells: HEK293A

348 GPCRs [6] = target: T5, 348 GPCRs (Homo sapiens, UniProt Q8TDV2); conditions: 10µM, Favipiravir 100μM
T5 construct: expressed in transfected cells; host or cells: HEK293A

348 GPCRs [7] = target: T6, 348 GPCRs (Homo sapiens, UniProt Q96P69); conditions: 10µM, Favipiravir 100μM
T6 construct: expressed in transfected cells; host or cells: HEK293A

348 GPCRs [8] = target: T7, 348 GPCRs (Homo sapiens, UniProt Q99680); conditions: 10µM, Favipiravir 100μM
T7 construct: expressed in transfected cells; host or cells: HEK293A

348 GPCRs [9] = target: T8, 348 GPCRs (Homo sapiens, UniProt Q9BY21); conditions: 10µM, Favipiravir 100μM
T8 construct: expressed in transfected cells; host or cells: HEK293A

348 GPCRs [10] = target: T9, 348 GPCRs (Homo sapiens, UniProt Q9H1C0); conditions: 10µM, Favipiravir 100μM
T9 construct: expressed in transfected cells; host or cells: HEK293A

348 GPCRs [11] = target: T10, 348 GPCRs (Homo sapiens, UniProt Q9H255); conditions: 10µM, Favipiravir 100μM
T10 construct: expressed in transfected cells; host or cells: HEK293A
T10 sequence (Q9H255 1-320): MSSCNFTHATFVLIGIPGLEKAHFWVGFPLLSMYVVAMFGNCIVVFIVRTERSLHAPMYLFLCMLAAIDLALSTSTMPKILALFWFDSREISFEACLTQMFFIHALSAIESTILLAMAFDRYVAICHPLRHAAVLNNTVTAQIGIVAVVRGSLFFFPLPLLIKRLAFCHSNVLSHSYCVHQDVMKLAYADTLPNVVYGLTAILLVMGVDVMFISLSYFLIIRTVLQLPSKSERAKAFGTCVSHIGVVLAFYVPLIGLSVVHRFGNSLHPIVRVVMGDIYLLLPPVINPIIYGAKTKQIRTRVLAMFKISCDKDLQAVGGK

348 GPCRs [12] = target: T11, 348 GPCRs (Homo sapiens, UniProt Q9HB89); conditions: 10µM, Favipiravir 100μM
T11 construct: expressed in transfected cells; host or cells: HEK293A
T11 sequence (Q9HB89 1-426): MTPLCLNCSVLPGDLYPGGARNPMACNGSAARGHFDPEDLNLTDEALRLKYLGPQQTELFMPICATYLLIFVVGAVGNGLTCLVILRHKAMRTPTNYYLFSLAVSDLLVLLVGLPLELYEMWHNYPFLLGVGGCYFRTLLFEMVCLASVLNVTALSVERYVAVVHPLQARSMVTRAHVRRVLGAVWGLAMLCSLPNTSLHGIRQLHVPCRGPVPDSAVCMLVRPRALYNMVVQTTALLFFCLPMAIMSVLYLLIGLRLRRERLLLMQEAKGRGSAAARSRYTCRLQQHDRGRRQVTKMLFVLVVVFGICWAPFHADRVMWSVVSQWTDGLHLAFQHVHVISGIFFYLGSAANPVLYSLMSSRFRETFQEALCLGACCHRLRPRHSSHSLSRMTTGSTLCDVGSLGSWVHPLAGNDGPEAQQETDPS

[13] = GPR182 (G protein-coupled receptor 182), read-out: % GPCR activation compared to TPA
[14] = LHCGR (luteinizing hormone/choriogonadotropin receptor), read-out: % GPCR activation compared to TPA
[15] = BB3 (Bombesin receptor, subtype 3), read-out: % GPCR activation compared to TPA
[16] = GPR97 (Adhesion G Protein-Coupled Receptor G3 (ADGRG3)), read-out: % GPCR activation compared to TPA
[17] = GPR148 (G Protein-Coupled Receptor 148), read-out: % GPCR activation compared to TPA
[18] = GPR78 (G Protein-Coupled Receptor 78), read-out: % GPCR activation compared to TPA
[19] = GPR22 (G Protein-Coupled Receptor 22), read-out: % GPCR activation compared to TPA
[20] = GPR87 (G Protein-Coupled Receptor 87), read-out: % GPCR activation compared to TPA
[21] = LPAR5 (lysophosphatidic acid receptor 5), read-out: % GPCR activation compared to TPA
[22] = OR51E2 (olfactory receptor, family 51, subfamily E, member 2), read-out: % GPCR activation compared to TPA
[23] = NMUR1 (neuromedin U receptor 1), read-out: % GPCR activation compared to TPA
[24] = read-out: % GPCR activation compared to TPA, GPR182 (G protein-coupled receptor 182)
[25] = read-out: % GPCR activation compared to TPA, LHCGR (luteinizing hormone/choriogonadotropin receptor)
[26] = read-out: % GPCR activation compared to TPA, BB3 (Bombesin receptor, subtype 3)
[27] = read-out: % GPCR activation compared to TPA, GPR97 (Adhesion G Protein-Coupled Receptor G3 (ADGRG3))
[28] = read-out: % GPCR activation compared to TPA, GPR148 (G Protein-Coupled Receptor 148)
[29] = read-out: % GPCR activation compared to TPA, GPR78 (G Protein-Coupled Receptor 78)
[30] = read-out: % GPCR activation compared to TPA, GPR22 (G Protein-Coupled Receptor 22)
[31] = read-out: % GPCR activation compared to TPA, GPR87 (G Protein-Coupled Receptor 87)
[32] = read-out: % GPCR activation compared to TPA, LPAR5 (lysophosphatidic acid receptor 5)
[33] = read-out: % GPCR activation compared to TPA, OR51E2 (olfactory receptor, family 51, subfamily E, member 2)
[34] = read-out: % GPCR activation compared to TPA, NMUR1 (neuromedin U receptor 1)

T2 sequence (P22888 27-699): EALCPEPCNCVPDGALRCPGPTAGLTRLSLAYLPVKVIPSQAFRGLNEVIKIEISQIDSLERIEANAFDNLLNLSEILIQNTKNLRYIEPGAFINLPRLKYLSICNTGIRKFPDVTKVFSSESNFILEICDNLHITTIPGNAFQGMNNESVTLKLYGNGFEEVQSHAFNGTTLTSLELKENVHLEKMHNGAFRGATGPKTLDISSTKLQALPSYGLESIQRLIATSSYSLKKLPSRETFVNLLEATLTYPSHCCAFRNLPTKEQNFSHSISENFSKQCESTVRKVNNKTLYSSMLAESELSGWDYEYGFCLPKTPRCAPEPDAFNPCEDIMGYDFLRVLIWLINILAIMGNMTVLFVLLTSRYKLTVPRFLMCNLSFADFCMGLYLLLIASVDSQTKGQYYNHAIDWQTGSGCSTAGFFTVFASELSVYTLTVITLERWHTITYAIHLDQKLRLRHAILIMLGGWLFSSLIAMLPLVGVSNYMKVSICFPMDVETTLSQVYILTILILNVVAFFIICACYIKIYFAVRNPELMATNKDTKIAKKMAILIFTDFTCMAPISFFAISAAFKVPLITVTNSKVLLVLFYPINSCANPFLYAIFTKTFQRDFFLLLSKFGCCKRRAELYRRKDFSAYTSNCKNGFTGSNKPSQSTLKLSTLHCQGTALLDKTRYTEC
T5 sequence (Q8TDV2 whole entry): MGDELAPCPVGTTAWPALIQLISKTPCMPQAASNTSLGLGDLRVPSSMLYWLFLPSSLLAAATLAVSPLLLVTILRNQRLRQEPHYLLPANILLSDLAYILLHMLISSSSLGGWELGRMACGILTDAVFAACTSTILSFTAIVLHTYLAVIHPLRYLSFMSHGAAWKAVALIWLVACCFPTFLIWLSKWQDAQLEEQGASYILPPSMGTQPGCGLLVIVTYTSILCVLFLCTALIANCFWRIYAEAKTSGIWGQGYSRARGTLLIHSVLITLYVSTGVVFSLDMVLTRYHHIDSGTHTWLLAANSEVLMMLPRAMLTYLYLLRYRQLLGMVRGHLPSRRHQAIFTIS
T8 sequence (Q9BY21 whole entry): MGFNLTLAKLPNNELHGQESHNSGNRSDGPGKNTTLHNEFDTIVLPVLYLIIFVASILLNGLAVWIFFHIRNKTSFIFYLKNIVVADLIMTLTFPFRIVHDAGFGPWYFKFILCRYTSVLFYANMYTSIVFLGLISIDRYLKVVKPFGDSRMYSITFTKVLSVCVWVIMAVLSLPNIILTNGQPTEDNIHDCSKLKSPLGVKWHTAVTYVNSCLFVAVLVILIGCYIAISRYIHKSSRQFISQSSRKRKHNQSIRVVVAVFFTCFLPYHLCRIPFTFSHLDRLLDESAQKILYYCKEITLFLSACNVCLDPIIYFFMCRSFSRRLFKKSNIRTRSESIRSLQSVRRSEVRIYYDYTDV
T7 sequence (Q99680 whole entry): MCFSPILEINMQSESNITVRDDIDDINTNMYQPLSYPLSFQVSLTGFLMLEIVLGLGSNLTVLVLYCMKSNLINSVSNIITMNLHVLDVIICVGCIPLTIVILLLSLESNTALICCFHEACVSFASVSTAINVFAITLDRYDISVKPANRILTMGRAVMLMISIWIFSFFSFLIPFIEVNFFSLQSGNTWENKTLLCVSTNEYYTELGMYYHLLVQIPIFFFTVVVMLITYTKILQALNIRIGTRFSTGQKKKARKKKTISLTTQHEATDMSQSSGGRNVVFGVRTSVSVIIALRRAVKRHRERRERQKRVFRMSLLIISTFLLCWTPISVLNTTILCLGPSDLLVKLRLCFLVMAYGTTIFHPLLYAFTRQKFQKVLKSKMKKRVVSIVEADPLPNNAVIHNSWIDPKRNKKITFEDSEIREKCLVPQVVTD
Chain of 348 GPCRs (Homo sapiens, UniProt P47872) (P47872 23-440): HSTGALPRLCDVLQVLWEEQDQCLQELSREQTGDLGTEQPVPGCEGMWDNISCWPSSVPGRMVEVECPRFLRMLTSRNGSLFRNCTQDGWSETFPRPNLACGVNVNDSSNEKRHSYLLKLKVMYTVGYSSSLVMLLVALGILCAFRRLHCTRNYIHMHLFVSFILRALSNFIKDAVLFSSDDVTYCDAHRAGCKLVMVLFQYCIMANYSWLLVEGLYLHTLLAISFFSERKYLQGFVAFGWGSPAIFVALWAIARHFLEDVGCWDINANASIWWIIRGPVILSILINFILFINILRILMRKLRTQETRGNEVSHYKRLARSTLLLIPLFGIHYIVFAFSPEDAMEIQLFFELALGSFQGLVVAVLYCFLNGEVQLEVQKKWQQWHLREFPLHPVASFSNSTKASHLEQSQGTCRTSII
T6 sequence (Q96P69 whole entry): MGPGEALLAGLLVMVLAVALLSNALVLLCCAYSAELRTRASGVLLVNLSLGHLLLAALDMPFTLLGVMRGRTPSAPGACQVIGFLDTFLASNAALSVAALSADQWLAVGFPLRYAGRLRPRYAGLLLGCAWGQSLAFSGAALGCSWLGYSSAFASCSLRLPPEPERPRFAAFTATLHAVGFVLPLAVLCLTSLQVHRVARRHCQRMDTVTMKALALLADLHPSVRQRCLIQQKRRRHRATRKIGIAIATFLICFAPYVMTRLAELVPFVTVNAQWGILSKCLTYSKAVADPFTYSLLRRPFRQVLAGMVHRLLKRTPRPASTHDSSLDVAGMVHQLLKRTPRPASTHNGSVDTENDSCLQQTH
T4 sequence (Q86Y34 21-549): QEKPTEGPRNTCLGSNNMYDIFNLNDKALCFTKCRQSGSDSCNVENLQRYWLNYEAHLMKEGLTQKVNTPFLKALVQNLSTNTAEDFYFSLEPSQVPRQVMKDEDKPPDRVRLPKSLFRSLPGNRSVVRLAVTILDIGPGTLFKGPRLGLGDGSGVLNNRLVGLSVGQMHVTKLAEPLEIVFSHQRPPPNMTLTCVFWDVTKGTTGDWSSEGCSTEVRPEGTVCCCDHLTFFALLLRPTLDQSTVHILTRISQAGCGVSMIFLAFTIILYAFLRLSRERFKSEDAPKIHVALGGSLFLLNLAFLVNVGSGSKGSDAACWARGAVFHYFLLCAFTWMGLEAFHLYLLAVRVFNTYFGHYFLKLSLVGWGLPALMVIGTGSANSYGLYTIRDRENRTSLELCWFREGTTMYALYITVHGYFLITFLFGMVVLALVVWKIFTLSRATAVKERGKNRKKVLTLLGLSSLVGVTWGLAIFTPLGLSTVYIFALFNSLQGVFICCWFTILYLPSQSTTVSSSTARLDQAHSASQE
T1 sequence (O15218 whole entry): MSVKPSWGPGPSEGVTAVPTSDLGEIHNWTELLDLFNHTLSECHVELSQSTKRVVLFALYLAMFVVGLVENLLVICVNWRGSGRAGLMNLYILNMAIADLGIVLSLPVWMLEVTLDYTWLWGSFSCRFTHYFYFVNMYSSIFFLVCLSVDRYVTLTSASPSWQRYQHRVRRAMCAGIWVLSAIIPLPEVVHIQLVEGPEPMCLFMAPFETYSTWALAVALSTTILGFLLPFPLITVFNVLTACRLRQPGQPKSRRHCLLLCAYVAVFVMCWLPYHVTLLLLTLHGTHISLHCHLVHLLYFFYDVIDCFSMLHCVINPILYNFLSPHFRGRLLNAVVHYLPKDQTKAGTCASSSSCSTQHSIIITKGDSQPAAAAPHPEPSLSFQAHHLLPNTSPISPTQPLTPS
T9 sequence (Q9H1C0 whole entry): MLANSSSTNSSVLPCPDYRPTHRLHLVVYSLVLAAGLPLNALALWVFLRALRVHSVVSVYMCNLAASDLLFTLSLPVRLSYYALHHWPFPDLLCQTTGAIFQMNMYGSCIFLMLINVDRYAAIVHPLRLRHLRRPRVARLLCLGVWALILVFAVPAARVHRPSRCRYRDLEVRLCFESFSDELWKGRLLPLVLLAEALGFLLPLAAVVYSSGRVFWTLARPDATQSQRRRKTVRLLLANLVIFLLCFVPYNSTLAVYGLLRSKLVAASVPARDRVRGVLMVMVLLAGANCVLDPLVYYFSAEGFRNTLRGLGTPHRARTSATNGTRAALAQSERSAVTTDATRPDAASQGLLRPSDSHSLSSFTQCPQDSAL

| activation at 100 µM (348 GPCRs [1]; [13]) [%] | activation at 100 µM (348 GPCRs [2]; [14]) [%] | activation at 10 µM (348 GPCRs [3]; [15]) [%] | % GPCR activation compared to TPA (348 GPCRs [4]) [%] | activation at 100 µM (348 GPCRs [5]; [16]) [%] | activation at 100 µM (348 GPCRs [6]; [17]) [%] | activation at 100 µM (348 GPCRs [7]; [18]) [%] | activation at 100 µM (348 GPCRs [8]; [19]) [%] | activation at 100 µM (348 GPCRs [9]; [20]) [%] | activation at 10 µM (348 GPCRs [10]; [21]) [%] | activation at 10 µM (348 GPCRs [11]; [22]) [%] | activation at 10 µM (348 GPCRs [12]; [23]) [%] | SMILES | activation at 100 µM (348 GPCRs [1]; [24]) [%] | activation at 100 µM (348 GPCRs [2]; [25]) [%] | activation at 10 µM (348 GPCRs [3]; [26]) [%] | activation at 100 µM (348 GPCRs [5]; [27]) [%] | activation at 100 µM (348 GPCRs [6]; [28]) [%] | activation at 100 µM (348 GPCRs [7]; [29]) [%] | activation at 100 µM (348 GPCRs [8]; [30]) [%] | activation at 100 µM (348 GPCRs [9]; [31]) [%] | other results |
| --- | --- | --- | --- | --- | --- | --- | --- | --- | --- | --- | --- | --- | --- | --- | --- | --- | --- | --- | --- | --- | --- |
| 0.124 | 0.261 | 1.72 | 0.8944 | -0.758 | -2.05 | 0.894 | 0.701 | -3.93 | 2.96 | 0.751 | -0.746 | N#C[C@@]1(c2ccc3c(N)ncnn23)O[C@H](CO)[C@@H](O)[C@H]1O [GS441524] | – | – | – | – | – | – | – | – | – |
| -0.288 | 0.315 | -0.00483 | -0.5125 | -1.79 | -3.11 | -0.429 | -0.704 | -4.67 | -1.99 | -0.415 | 0.18 | NC(=O)c1nc(F)cnc1O [favipiravir, 6-fluoro-3-hydroxy-2-pyrazinecarboxamide] | – | – | – | – | – | – | – | – | – |
| 0.0693 | -0.797 | 0.338 | -0.08366 | -1.08 | -3.32 | -0.581 | -2.13 | 0.11 | -2.73 | -0.989 | -0.0262 | CC(C)C(=O)OC[C@H]1O[C@@H](n2ccc(NO)nc2=O)[C@H](O)[C@@H]1O [molnupiravir] | – | – | – | – | – | – | – | – | – |

| SMILES | activation at 100 µM (348 GPCRs [1]; [13]) [%] | activation at 100 µM (348 GPCRs [2]; [14]) [%] | activation at 10 µM (348 GPCRs [3]; [15]) [%] | % GPCR activation compared to TPA (348 GPCRs [4]) [%] | activation at 100 µM (348 GPCRs [5]; [16]) [%] | activation at 100 µM (348 GPCRs [6]; [17]) [%] | activation at 100 µM (348 GPCRs [7]; [18]) [%] | activation at 100 µM (348 GPCRs [8]; [19]) [%] | activation at 100 µM (348 GPCRs [9]; [20]) [%] | activation at 10 µM (348 GPCRs [10]; [21]) [%] | activation at 10 µM (348 GPCRs [11]; [22]) [%] | activation at 10 µM (348 GPCRs [12]; [23]) [%] | activation at 100 µM (348 GPCRs [1]; [24]) [%] | activation at 100 µM (348 GPCRs [2]; [25]) [%] | activation at 10 µM (348 GPCRs [3]; [26]) [%] | activation at 100 µM (348 GPCRs [5]; [27]) [%] | activation at 100 µM (348 GPCRs [6]; [28]) [%] | activation at 100 µM (348 GPCRs [7]; [29]) [%] | activation at 100 µM (348 GPCRs [8]; [30]) [%] | activation at 100 µM (348 GPCRs [9]; [31]) [%] | other results |
| --- | --- | --- | --- | --- | --- | --- | --- | --- | --- | --- | --- | --- | --- | --- | --- | --- | --- | --- | --- | --- | --- |
| CCC(CC)COC(=O)[C@H](C)N[P@](=O)(OC[C@H]1O[C@@](C#N)(c2ccc3c(N)ncnn23)[C@H](O)[C@@H]1O)Oc1ccccc1 [remdesivir] | – | – | – | -0.9507 | – | – | – | – | – | – | – | – | 2.44 | 0.234 | 2.03 | -1.74 | -2.35 | 2.44 | -1.09 | -0.159 | activation at 10 µM (348 GPCRs [10]; [32]): 2.15%; activation at 10 µM (348 GPCRs [11]; [33]): 0.358%; activation at 10 µM (348 GPCRs [12]; [34]): 0.248% |
| CC(C)OC(=O)[C@H](C)N[P@](=O)(OC[C@H]1O[C@@H](n2ccc(=O)[nH]c2=O)[C@](C)(F)[C@@H]1O)Oc1ccccc1 [sofosbuvir] | – | – | – | 0.153 | – | – | – | – | – | – | – | – | 0.0893 | 1.92 | 7.68 | -1.21 | -1.48 | 2.01 | 0.408 | 2.98 | activation at 10 µM (348 GPCRs [10]; [32]): 1.1%; activation at 10 µM (348 GPCRs [11]; [33]): -1.75%; activation at 10 µM (348 GPCRs [12]; [34]): -2.52% |
